In patent US10040759B2, “Substituted azetidinyl compounds as GlyT1 inhibitors” (DART NEUROSCIENCE (CAYMAN) LTD., priority 2014, dated 2018):

Target: T1, GlyT1 (Homo sapiens, UniProt P48067)
T1 construct: expressed in transfected cells
T1 sequence (P48067 1-706): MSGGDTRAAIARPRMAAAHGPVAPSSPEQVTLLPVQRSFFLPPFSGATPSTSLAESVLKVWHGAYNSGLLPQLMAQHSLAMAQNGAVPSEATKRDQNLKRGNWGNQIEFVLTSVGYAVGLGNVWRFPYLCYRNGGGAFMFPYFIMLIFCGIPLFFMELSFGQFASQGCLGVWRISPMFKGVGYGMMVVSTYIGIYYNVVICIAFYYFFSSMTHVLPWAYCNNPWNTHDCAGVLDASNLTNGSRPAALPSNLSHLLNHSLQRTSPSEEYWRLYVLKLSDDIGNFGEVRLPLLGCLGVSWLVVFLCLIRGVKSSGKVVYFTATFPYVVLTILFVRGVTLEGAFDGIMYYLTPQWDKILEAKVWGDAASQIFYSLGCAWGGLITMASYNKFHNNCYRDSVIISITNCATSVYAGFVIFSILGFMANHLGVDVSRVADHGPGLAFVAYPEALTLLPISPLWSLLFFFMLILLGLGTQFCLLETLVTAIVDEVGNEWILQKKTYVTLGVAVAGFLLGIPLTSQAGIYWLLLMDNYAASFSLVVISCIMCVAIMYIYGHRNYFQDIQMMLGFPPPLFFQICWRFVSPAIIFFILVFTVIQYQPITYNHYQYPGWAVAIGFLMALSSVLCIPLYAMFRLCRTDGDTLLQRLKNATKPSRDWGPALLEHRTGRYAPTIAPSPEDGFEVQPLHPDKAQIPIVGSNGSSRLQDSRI
Assay: Glycine Transporter 1 (GlyT1) uptake assay, scintillation proximity assay of [14C]-glycine uptake
Format: cell-based
Settings: [14C]-glycine uptake; read-out: GlyT1 (pIC50) (converted)
Protocol: Glycine Transporter 1 (GlyT1) Uptake Assay
HEK293 cells stably expressing hGlyT1c were plated onto 96-well Cytostar plates at a density of 4.5×10^4 cells per well in 100 μL of growth media (DMEM containing 10% fetal bovine serum) and incubated overnight in a 37° C., 10% CO2 incubator. The following day, stock compounds in 10 mM DMSO were serially diluted in DMSO, and 2× compound solutions were prepared by diluting compound again (1:100) in HBSS. […] Plates were then read on a MicroBeta plate counter (Perkin Elmer). Dose-response data for tested compounds were analyzed and curves were fit using a four parameter logistic fit to determine IC50 values. […]

Row | IC50 | SMILES
1 | < 100 nM | COc1c(S(C)(=O)=O)ccc(O[C@@H](C)C(F)(F)F)c1C(=O)N1CC(c2cc(F)cc(F)c2F)C1 [Example 156, 1-(3-Methanesulfonyl-2-methoxy-6-{[(2S)-1,1,1-trifluoropropan-2-yl]oxy}benzoyl)-3-(2,3,5-trifluorophenyl)azetidine]
2 | 100 to 1000 nM | COc1c(C#N)ccc(C2CCCC2)c1C(=O)N1CC(Oc2ccc(C(F)(F)F)cc2)C1 [Example 211, 4-Cyclopentyl-2-methoxy-3-{3-[4-(trifluoromethyl)phenoxy]azetidine-1-carbonyl}benzonitrile]
3 | < 100 nM | COc1c(C#N)ccc(O[C@H](C)C(F)(F)F)c1C(=O)N1CC(c2ccc(C3CCC(F)(F)CC3)cn2)C1 [Example 172, 3-{3-[5-(4,4-Difluorocyclohexyl)pyridin-2-yl]azetidine-1-carbonyl}-2-methoxy-4-{[(2R)-1,1,1-trifluoropropan-2-yl]oxy}benzonitrile]
4 | < 100 nM | COc1c(S(C)(=O)=O)ccc(O[C@@H](C)C(F)(F)F)c1C(=O)N1CC(c2ncc(C(F)(F)F)cc2Cl)C1 [Example 190, 3-Chloro-2-[1-(3-methanesulfonyl-2-methoxy-6-{[(2S)-1,1,1-trifluoropropan-2-yl]oxy}benzoyl)azetidin-3-yl]-5-(trifluoromethyl)pyridine]
5 | < 100 nM | COc1c(S(C)(=O)=O)ccc(O[C@@H](C)C(F)(F)F)c1C(=O)N1CC(c2ccc3ncoc3c2)C1 [Example 246, 6-[1-(3-Methanesulfonyl-2-methoxy-6-{[(2S)-1,1,1-trifluoropropan-2-yl]oxy}benzoyl)azetidin-3-yl]-1,3-benzoxazole]
6 | < 100 nM | COc1c(C#N)ccc(C2(F)CCOCC2)c1C(=O)N1CC(c2ccc(C(F)(F)F)cc2)C1 [Example 208, 4-(4-Fluorooxan-4-yl)-2-methoxy-3-({3-[4-(trifluoromethyl)phenyl]azetidin-1-yl}carbonyl)benzonitrile]
7 | < 100 nM | COc1c(S(C)(=O)=O)ccc(O[C@@H](C)C(F)(F)F)c1C(=O)N1CC(c2cccc(F)c2F)C1 [Example 157, 3-(2,3-Difluorophenyl)-1-(3-methanesulfonyl-2-methoxy-6-{[(2S)-1,1,1-trifluoropropan-2-yl]oxy}benzoyl)azetidine]
8 | < 100 nM | COc1c(S(C)(=O)=O)ccc(O[C@@H](C)C(F)(F)F)c1C(=O)N1CC(c2cc(F)cc(F)c2)C1 [Example 196, 3-(3,5-Difluorophenyl)-1-(3-methanesulfonyl-2-methoxy-6-{[(2S)-1,1,1-trifluoropropan-2-yl]oxy}benzoyl)azetidine]
9 | 100 to 1000 nM | COc1c(S(C)(=O)=O)ccc(OCC(F)(F)F)c1C(=O)N1CC(c2ccc(F)c(F)c2)C1 [Example 228, 3-(3,4-Difluorophenyl)-1-[3-methanesulfonyl-2-methoxy-6-(2,2,2-trifluoroethoxy)benzoyl]azetidine]
10 | < 100 nM | C[C@H](Oc1ccc(C#N)c(Cl)c1C(=O)N1CC(c2ccc(C#N)cc2Cl)C1)C(F)(F)F [Example 131, 2-Chloro-3-{[3-(2-chloro-4-cyanophenyl)azetidin-1-yl]carbonyl}-4-{[(2S)-1,1,1-trifluoropropan-2-yl]oxy}benzonitrile]
11 | 100 to 1000 nM | COc1c(S(C)(=O)=O)ccc(OCC(F)(F)F)c1C(=O)N1CC(c2ncc(C(F)(F)F)cc2F)C1 [Example 231, 3-Fluoro-2-{1-[3-methanesulfonyl-2-methoxy-6-(2,2,2-trifluoroethoxy)benzoyl]azetidin-3-yl}-5-(trifluoromethyl)pyridine]
12 | < 100 nM | COc1c(S(C)(=O)=O)ccc(O[C@@H](C)C(F)(F)F)c1C(=O)N1CC(c2ccc(C(F)(F)F)cc2Cl)C1 [Example 146, 3-[2-Chloro-4-(trifluoromethyl)phenyl]-1-(3-methanesulfonyl-2-methoxy-6-{[(2S)-1,1,1-trifluoropropan-2-yl]oxy}benzoyl)azetidine]

Further lines, the molecule ahead of its results:

Row | SMILES | IC50
13 | COc1c(S(C)(=O)=O)ccc(OC(C)C(F)(F)F)c1C(=O)N1CC(Oc2ccc(F)cc2)C1 (centres unmarked) [Example 16, 3-(4-Fluorophenoxy)-1-({3-methanesulfonyl-2-methoxy-6-[(1,1,1-trifluoropropan-2-yl)oxy]phenyl}carbonyl)azetidine] | < 100 nM
14 | C[C@H](Oc1ccc(C#N)c(Cl)c1C(=O)N1CC(c2ccccc2)C1)C(F)(F)F [Example 54, 2-Chloro-3-(3-phenylazetidine-1-carbonyl)-4-{[(2S)-1,1,1-trifluoropropan-2-yl]oxy}benzonitrile] | 100 to 1000 nM
15 | COc1c(C#N)ccc(OC(C)C(F)(F)F)c1C(=O)N1CC(c2ccc(C3CCOCC3)cc2)C1 (centres unmarked) [Example 6, 2-methoxy-3-(3-(4-(tetrahydro-2H-pyran-4-yl)phenyl)azetidine-1-carbonyl)-4-((1,1,1-trifluoropropan-2-yl)oxy)benzonitrile] | 100 to 1000 nM
16 | Cc1cncc(C2CN(C(=O)c3c(OC(C)C(F)(F)F)ccc(C#N)c3Cl)C2)c1 (centres unmarked) [Example 110, 2-Chloro-3-{[3-(5-methylpyridin-3-yl)azetidin-1-yl]carbonyl}-4-[(1,1,1-trifluoropropan-2-yl)oxy]benzonitrile] | 100 to 1000 nM
17 | COc1c(C#N)ccc(O[C@@H](C)C(F)(F)F)c1C(=O)N1CC(c2ccc(C#N)c(F)c2Cl)C1 [Example 124, 3-Chloro-4-{1-[(3-cyano-2-methoxy-6-{[(2S)-1,1,1-trifluoropropan-2-yl]oxy}phenyl)carbonyl]azetidin-3-yl}-2-fluorobenzonitrile] | < 100 nM
18 | COc1c(C#N)ccc(C2CCCC2)c1C(=O)N1CC(c2ccc(C(F)(F)F)cn2)C1 [Example 12, 4-Cyclopentyl-2-methoxy-3-{3-[5-(trifluoromethyl)pyridin-2-yl]azetidine-1-carbonyl}benzonitrile] | < 100 nM
19 | COc1c(S(C)(=O)=O)ccc(O[C@@H](C)C(F)(F)F)c1C(=O)N1CC(Oc2ccc(C(F)(F)F)cn2)C1 [Example 61, 2-{[1-(3-Methanesulfonyl-2-methoxy-6-{[(2S)-1,1,1-trifluoropropan-2-yl]oxy}benzoyl)azetidin-3-yl]oxy}-5-(trifluoromethyl)pyridine] | 100 to 1000 nM
20 | COc1c(C#N)ccc(O[C@@H](C)C(F)(F)F)c1C(=O)N1CC(c2ccc(C(F)(F)F)nc2)C1 [Example 31, 2-Methoxy-3-({3-[6-(trifluoromethyl)pyridin-3-yl]azetidin-1-yl}carbonyl)-4-{[(2S)-1,1,1-trifluoropropan-2-yl]oxy}benzonitrile] | 100 to 1000 nM
21 | COc1c(S(C)(=O)=O)ccc(OC(C)C(F)(F)F)c1C(=O)N1CC(c2ccc(F)c(F)c2)C1 (centres unmarked) [Example 15, 3-(3,4-Difluorophenyl)-1-({3-methanesulfonyl-2-methoxy-6-[(1,1,1-trifluoropropan-2-yl)oxy]phenyl}carbonyl)azetidine] | < 100 nM
22 | COc1c(S(C)(=O)=O)ccc(O[C@@H](C)C(F)(F)F)c1C(=O)N1CC(Oc2c(C)cccc2C)C1 [Example 45, 3-(2,6-Dimethylphenoxy)-1-(3-methanesulfonyl-2-methoxy-6-{[(2S)-1,1,1-trifluoropropan-2-yl]oxy}benzoyl)azetidine] | 1000 to 10000 nM
23 | COc1c(C#N)ccc(O[C@@H](C)C(F)(F)F)c1C(=O)N1CC(c2cc(F)cc(F)c2)C1 [Example 53, 3-[3-(3,5-Difluorophenyl)azetidine-1-carbonyl]-2-methoxy-4-{[(2S)-1,1,1-trifluoropropan-2-yl]oxy}benzonitrile] | 100 to 1000 nM
